# Assays:
# [1] = tested on: post-operative hyperalgesia after paw incision; experiment: paw incision post-operative hyperalgesia, injection at the sciatic nerve; type: in vivo, rats; conditions: nerve block before paw incision
# Experimental: Microspheres of Example 1 were also tested for anti-hyperalgesic effects after rodent surgery. […] If microspheres of Example 1 were injected at the sciatic nerve approximately 1.5 hours before the surgery, the subsequent post-operative hyperalgesia was suppressed for about 4 days. In contrast, nerve block by 0.5% by weight aqueous bupivacaine solution suppressed post-operative hyperalgesia for about 6 hours. Microspheres of Example 2 were ineffective against post-incisional pain.
# [2] = tested on: post-operative allodynia and hyperalgesia; experiment: incision and blunt dissection of the back skin, post-operative allodynia and hyperalgesia; type: in vivo, rats; conditions: about 0.4 milliliters subcutaneous infiltration
# Experimental: In a second surgical scenario, Microspheres of Example 1 were injected as a subcutaneous infiltration in the thoraco-lumbar region before an incision and blunt dissection of the back skin. Microspheres of Example 1, including about 40 milligrams of bupivacaine, were injected as a single bolus of about 0.4 milliliters. The injection produced anesthesia to VFH pokes at the injected area for about 6 hours and anesthesia to pin pricks for about 12 hours. Post-operative allodynia and hyperalgesia in this model lasted for about 14 days, but were suppressed for approximately 5 days and 3 days, respectively, by microspheres of Example 1 injected approximately 2 hours before surgery. About 0.4 milliliters of 0.5% by weight aqueous bupivacaine solution was ineffective in reducing post-operative hypersensitivity, just as the microspheres of Example 2 were also ineffective.
# sciatic nerve [3] = experiment: sciatic nerve block in rats (paw pinch, motor block); type: in vivo; conditions: single bolus of about 0.4 milliliters at the sciatic nerve
# Experimental: The microspheres of Example 1 were also tested for sciatic nerve block and for subcutaneous infiltration anesthesia in rats. Sciatic nerves were injected with nominal doses of microspheres of Example 1, having about 40 milligrams of bupivacaine, by injection as a single bolus of about 0.4 milliliters. […] Half-recovery of these respective functions occurred at about 42±6 hours and 36±3 hours, and normal, pre-block function was restored by about 63±8 hours for nociception and about 56±7 hours for motor block. By comparison, injection of about 0.4 milliliters of about 0.5% by weight aqueous bupivacaine solution gave complete blocks for only about 0.5 hours to about 1 hours for nociception and about 1 hour for motor functions, with complete recovery by about 3 hours for both functions.
# sciatic nerve [4] = experiment: sciatic nerve block, latency for leg withdrawal from noxious heat; type: in vivo, male S-D rats; conditions: about 0.6 milliliters next to the sciatic nerve; heat stimulus of about 56° C.
# Experimental: The anti-nociceptive activity of EXPAREL® particles was also tested. The latency for leg withdrawal in male S-D rats from a noxious heat stimulus of about 56° C. applied to the plantar surface of the paw was used to test the duration of functional sciatic nerve block achieved using EXPAREL®. The normal latency for paw withdrawal was about 2 seconds and “maximal sensory blockade” was characterized by a latency of about 12 seconds. Sensory blockade of about 0.6 milliliters of EXPAREL® containing about 7.8 milligrams of bupivacaine, injected next to the sciatic nerve of an adult male S-D rat weighing from about 310 grams to about 420 grams, which was equivalent to about 25 milligrams of bupivacaine per kilogram, was determined by the time from injection until the latency returned to about 7 seconds, half way back to the pre-injection latency of about 2 seconds. By this criterion, the sensing block from EXPAREL® lasted about 240 minutes, and that from 0.6 milliliter solution of about 0.5% by weight bupivacaine, which was used as a control, lasted about 120 minutes.
compound,measurement,setting,value
CCCCN1CCCCC1C(=O)Nc1c(C)cccc1C (stereo not drawn) [bupivacaine],time for which post-operative hyperalgesia was suppressed,[1],about 6 hours
same,reduction of post-operative hypersensitivity,[2],ineffective
same,duration of complete motor block (total flaccid paralysis),sciatic nerve [3],about 1 hours
same,"time to normal, pre-block function (complete recovery), motor",sciatic nerve [3],about 3 hours
same,"time to normal, pre-block function (complete recovery), nociception",sciatic nerve [3],about 3 hours
same,duration of sensory block (time until latency returned to about 7 seconds),sciatic nerve [4],about 120 minutes

# From patent publication US10449152B2, “Drug loaded microspheres for post-operative chronic pain” (priority 2014, dated 2019)
